The numbers were not newly measured in US20220062352A1, “COMPOSITIONS FOR THE TREATMENT OF CONDITIONS” (Demata Therapeutics, LLC, priority 2018, published 2022), which cites them from elsewhere.

For this series, the system named is acne vulgaris subjects.

With `CC(=O)N[C@H]1C(O)O[C@H](CO)[C@@H](O)[C@@H]1O` (stereo partly drawn) [NAG, N-acetyl-D-glucosamine], the “tolerability versus 10% benzoyl peroxide” value (acne vulgaris subjects) is listed as “better tolerated by the subjects than 10% benzoyl peroxide”. In addition, for the setting “over an 8-week period”, the “number of acne lesions” value is listed as “quickly reduced the number of acne lesions”.
